Experimental data taken from patent publication US8323971B2, “Differentiation of pluripotent cells into primary germ layer progenitors” (Cambridge Enterprise Limited, priority 2006, dated 2012).

Tests used:
Format in all cases: cell-based, human
H9 hESCs = assay: Screening of culture conditions by immunostaining for Oct4, Sox2, Brachyury, Sox17; conditions: for rescue of Oct4 expression under SB431542: added with SB431542
Method: Table 2 and Table 3 show the screening of culture conditions for inducing mesoendoderm differentiation into CDM. H9 hESCs were grown for 7 days or more in CDM-BSA or CDM-PVA supplemented with different growth factors (Activin, BMP4, FGF2) or inhibitors (SU5402 for FGF, SB431542 for Activin/Nodal/TGFβ, BIO for βCatenin). Then, immunostaining analysis were used to determine the fractions of cells expressing the pluripotent marker Oct-4, neuroectoderm marker Sox2, the mesoderm marker Brachyury, and the endoderm marker Sox17. The quantities of expressing cells were divided into five arbitrary categories. 0 for absence of expression, VL for expressing cells <1%, L for expressing cells <5%, H for expressing cells >10%, VH for expressing cells >50%. IN red are indicated the conditions allowing the generation of mesendoderm cells expressing Brachyury or Sox17.
HESCs or differentiated progenitors were fixed for 20 minutes at 4° C. in 4% paraformaldehyde (PFA) and then washed three times in PBS. Cells were incubated for 20 minutes at room temperature in PBS containing 10% goat serum (Serotec) and subsequently incubated over night at 4° C. with primary antibody diluted in 1% goat serum in PBS as follows: SSEA-3 (1:100, Santa Cruz), SSAE-1 (1:25), Tra-1-60 (1:100, Santa CruZ), Oct-4 (1:100, Abcam ab18976 or SantaCruz), Sox2 (1:100, Abcam ab15830), Alkaline Phophatase (1:50, Abcam ab17989), Brachyury (1:100, Abcam ab20680 or RandD systems), Sox17 (RandD systems), FoxA2 (1:50, Abcam ab5074), GATA4 (1:250, Santa CruZ), GATA6 (1:200, Abcam ab22600 or Santa Cruz), Vent-2 (1:100, Abcam ab20913), Goosecoid (1:25, Abcam ab21059), Wnt3A (1:100, Abcam ab19925), CXCR4 (1:100, RanD Systems or Pharmingen). Nestin (1:200, Abcam ab5968), NCAM (1:100, Abcam ab8077), GFAP (ZZ), Neurofilament (ZZ), βIII Tubulin (ZZ), Glutamate (ZZ), N-Cadherin (1:100, Abcam ab18203 or ZZ). Cells were then washed three times in PBS and incubated with fluorescein-Isothiocyanate-conjugated anti-mouse IgG or IgM (Sigma 1:200 in 1% goat serum in PBS) or rat IgM (Jackson laboratory 1:300 in goat serum in PBS) or rabbit IgG (Jackson laboratory 1:200 in donkey serum in PBS) for two hours at room temperature. Unbound secondary antibody was removed by 3 washes in PBS. Hoechst 33258 was added to the first wash (Sigma 1:10000).
We then developed a method for inducing differentiation of hESCs into the three primary germ layers. Culture conditions inductive for mesoderm, endoderm and neuroectoderm were screened using an approach based on immunostaining analyses for the expression of proteins specifically expressed by pluripotent cells (Oct-4), neuroectoderm progenitors (Sox2 in absence of Oct4), endoderm progenitors (Sox17) and mesoderm progenitors (Brachyury). In summary, hESCs grown in CDM (CDM-BSA or hu-CDM) were plated on fibronectin in CDM-BSA/AF or CDM-PVA/AF. Then cocktails of growth factors (BMP4, FGF2, Activin) or chemical inhibitors (SU5402, SB431542) were added at different times and for different periods. After 7 to 10 days treatment, cells were fixed and then the expression of Oct-4/Sox2, Sox17 and Brachyury was analysed using immunostaining. The effect of three growth factors on the differentiation of hESCs into the primary germ layers was systematically analysed in our screen. We also studied the function of FGF and Activin signalling pathways in the maintenance of the pluripotent state by analysing the effect of the SU5402, a chemical inhibitor of FGF receptors, and the SB431542, a chemical inhibitor of Activin/TGFβ receptors.

hESC derived EBs = assay: Real time qPCR / RT-PCR of neuroectoderm and pluripotency markers in EBs
Method: Four independent batches of WT and Lefty EBs were used for this analysis.
Five independent batches of DMSO- and SB431542-treated EBs were used for this analysis.
Lefty or Cerb-S expressing hESCs (as well as wildtype H9 and hSF-6 hESCs) were grown in 6 cm dishes (Corning), on mouse feeders. When confluent, hESCs were passaged using collagenase 1 mg/ml, as previously described (Schatten et al., 2005) and cultured in non-adherent conditions in CDM supplemented with either SU5402 (Calbiochem; 10 μM), SB431542 (Tocris; 20 μM), FGF-2 (R&D Systems; 12 ng/ml) or Noggin 200 ng/ml.
For some RT-PCR experiments, 50-100 ng of RNA were used for each RT-PCR reaction, using the OneStep RT-PCR kit according to manufacturer instructions. For real-time PCR, 1 μg RNA was reverse-transcribed using the Qiagen QuantiTect Reverse Transcription kit. 1/20-1/40 of each cDNA reaction was used for each real-time PCR reaction using the QuantiTect SYBR Green PCR Kit (Qiagen) according to manufacturer instructions. Relative quantification of gene expression was done by normalising the detected levels of gene of interest mRNA to those of the house-keeping GAPDH gene. All primers were purchased from Qiagen, with the exception of Xenopus Cerb-S: Forward 5′-[…]-3′ (SEQ ID NO: 1); Reverse 5′-ATGGTGCAGGGTAG TAGATG-3′ (SEQ ID NO: 2). Mouse Lefty2: Forward 5^r-[…]-3′ (SEQ ID NO: 3); Reverse 5′-[…]-3′ (SEQ ID NO: 4).

hESCs [1] = assay: Quantitation of β-tubulin III positive cells in monolayer differentiation; conditions: Lefty expressing hESCs, feeder free monolayer, CDM; FGF 12 ng/ml, Noggin 200 ng/ml, SU5402 20 μM
Method: In some experiments, Wildtype and Lefty expressing hESCs were grown on fibronectin in FGF (12 ng/ml)/Activin (20 ng/ml) as a monolayer in the absence of a feeder layer (Vallier et al., 2005). When cells were 70-80% confluent medium was changed to either CDM only, CDM/FGF (12 ng/ml), CDM/Noggin 200 ng/ml, CDM/SU5402 and differentiated for 24 days.
To quantify the neurogenic potential of Lefty expressing hESCs, we cultured Lefty expressing hESCs in feeder-free conditions as a monolayer in CDM supplemented with Activin and FGF as described previously (Vallier et al., 2005). When cells reached 70-80% confluency, medium was changed to CDM only, CDM plus FGF (12 ng/ml) (CDM/FGF), CDM plus the BMP inhibitor Noggin (200 ng/ml) ([…]) (CDM/SU5402), and cells were cultured in these conditions for 24 days
The incidence of neural differentiation was determined by counting the number of β-tubulin III positive cells in random fields.

hESCs [2] = assay: FACs fraction of cells expressing CXCR4 or PDGFR after mesendoderm induction in CDM PVA; conditions: Activin 100 ng/ml at third step with BMP4 and FGF2, CDM-PVA
Method: Fraction of cells expressing CXCR4 or PDGFa was determined using FACs after the third day in CDM+BMP+FGF+Activin.
hESCs grown in Feeder free and serum free conditions were harvested using 5 mg/ml collagenase IV then plated into plates pre-coated with fibronectin. hESCs were grown for 48 hours in CDM supplemented with Activin (10 ng/ml, RandD systems) and FGF2 (12 ng/ml, RandD systems). To induce extra-embryonic differentiation, hESCs were grown for 5 additional days in CDM supplemented with BMP4 (10 ng/ml, RandD systems). To obtain neuroectoderm progenitors, hESCs were grown in CDM or in CDM-PVA in the presence of SB431542 (10 μM Tocris) and FGF2 (12 ng/ml, RandD systems) for 7 additional days. The resulting cells were grown in non-adherent conditions for 10 days and then plated back for 5 additional days in CDM to obtain fully differentiated neuronal cells. To obtain mesendoderm precursors, hESCs were grown for 3 additional days in CDM-PVA in the presence of SU5402 (10 μM, Calbiochem) and Activin (5 ng/ml, RandD systems). […]
For detection of Tra-1-60, SSEA-3, N-CAM, CXCR4 and PDGFαRecptor adherent cells were washed twice in PBS then incubated for 20 minutes at 37 C in cell dissociation buffer (Invitrogen). […] Live cells identified by 7-AAD exclusion were analyzed for surface-marker expression using FACSCalibur.

In the case of O=C1Nc2cc(Br)ccc2/C1=C1/Nc2ccccc2/C1=N\O [BIO, reference compound], the “rescue of Oct4 expression under SB431542” value (H9 hESCs) is reported as “not sufficient to rescue the expression of Oct4”.

In the case of NC(=O)c1ccc(-c2nc(-c3ccc4c(c3)OCO4)c(-c3ccccn3)[nH]2)cc1 [SB431542, 4-(5-Benzol[1,3]dioxol-5-yl-4-pyrldin-2-yl-1H-imidazol-2-yl)-benzamide hydrate], the “cells expressing the mesendoderm markers Bra, Sox17, FoxA2, and αFP” value (H9 hESCs; in the presence of SB431542) is reported as “never observed”, the “Nestin, Sox3, and NGN2 expression (real time qPCR)” value (hESC derived EBs; 20 μM, EBs cultured 14-16 days, vs DMSO) is reported as “average increase” and the “pluripotency marker Oct4 (RT-PCR time course)” value (hESC derived EBs; EBs harvested every 4 days over 16 days, compared to controls) is reported as “rapid down-regulation”. For the same molecule, the “Sox1 expression levels (real time qPCR)” value (hESC derived EBs; EBs in CDM 14-16 days, vs DMSO) was “not a significant increase”.

In the case of Cc1c[nH]c(C=C2C(=O)Nc3ccccc32)c1CCC(=O)O [SU5402, 3-[3-(2-Carboxyethyl)-4-methylpyrrol-2-methylidenyl]-2-indolinone, reference compound], the “number of β-tubulin III positive cells compared to controls” value (shortened to “number … compared to controls”) (hESCs [1]) is reported as “significant reduction”.

In the case of FGF2: human fibroblast growth factor 2, the “rescue of Oct4 expression under SB431542” value (H9 hESCs) is reported as “not sufficient to rescue the expression of Oct4” and the “number … compared to controls” value (hESCs [1]) is reported as “did not show a significant increase”.

B1: Activin: dimeric polypeptide stimulating the Activin/Nodal pathway (protein, UniProt P08476 311-426, looked up)
Inhibin beta A chain: GLECDGKVNICCKKQFFVSFKDIGWNDWIIAPSGYHANYCEGECPSHIAGTSGSSLSFHSTVINHYRMRGHSPFANLKSCCVPTKLRPMSMLYYDDGQNIIKKDIQNMIVEECGCS
modifications: Inhibin beta A chain
In the case of B1, the “expression of neuroectoderm markers Sox1, Sox3, Nestin and NGN2” value (hESC derived EBs; addition to EB cultures) is reported as “decreasing expression”, the “fraction of cells expressing CXCR4” value (hESCs [2]) is reported as 70% and the “fraction of cells expressing PDGFR” value (hESCs [2]) is reported as 7%.

B2: Noggin: the BMP inhibitor Noggin (protein, UniProt Q13253 28-232, looked up)
Noggin: QHYLHIRPAPSDNLPLVDLIEHPDPIFDPKEKDLNETLLRSLLGGHYDPGFMATSPPEDRPGGGGGAAGGAEDLAELDQLLRQRPSGAMPSEIKGLEFSEGLAQGKKQRLSKKLRRKLQMWLWSQTFCPVLYAWNDLGSRFWPRYVKVGSCFSKRSCSVPEGMVCKPSKSVHLTVLRWRCQRRGGQRCGWIPIQYPIISECKCSC
In the case of B2, the “number … compared to controls” value (hESCs [1]) is reported as “significant increase”.
